Columns and labels:
[1] = target: T1, HiBit-BRG1 fusion protein (Homo sapiens, UniProt P51532); experiment: HiBiT-BRG1 cell-based degradation assay (Nano-Glo HiBiT Lytic Detection, 24 h); settings: HeLa cell line expressing HiBit-BRG1 and LgBit; for Dmax: read-out: BRG1 HiBit Degradation Maximum (%); for DC50: read-out: BRMG1 HiBit Degradation IC50
T1 construct: expressed in transfected cells
Outline: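 Seed 5000 HeLa HiBit-BRG1/LgBit cells per well; treat 24 h; equilibrate 15 min at room temperature; add Nano-Glo HiBiT lytic reagent, shake 10 min, read luminescence. Percent degradation is scaled between DMSO and 2 μM reference degrader wells.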

HiBit-BRM fusion protein = target: T2, HiBit-BRM fusion protein (Homo sapiens, UniProt P51531); experiment: HiBiT-BRM cell-based degradation assay (Nano-Glo HiBiT Lytic Detection, 24 h); settings: HeLa cell line expressing HiBiT-BRM; for DC50: read-out: BRM HiBit Degradation IC50
T2 construct: expressed in transfected cells
Outline: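 Luminescence from reconstituted NanoBiT luciferase in lysed HeLa HiBiT-BRM cells served as the measure of remaining BRM after 24 h treatment. Compounds were tested from 30 μM final downward in 3-fold steps. DMSO and 2 μM of a standard BRM/BRG1 degrader defined the scale limits.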

T2 sequence (P51531 whole entry, the tested form may be a part): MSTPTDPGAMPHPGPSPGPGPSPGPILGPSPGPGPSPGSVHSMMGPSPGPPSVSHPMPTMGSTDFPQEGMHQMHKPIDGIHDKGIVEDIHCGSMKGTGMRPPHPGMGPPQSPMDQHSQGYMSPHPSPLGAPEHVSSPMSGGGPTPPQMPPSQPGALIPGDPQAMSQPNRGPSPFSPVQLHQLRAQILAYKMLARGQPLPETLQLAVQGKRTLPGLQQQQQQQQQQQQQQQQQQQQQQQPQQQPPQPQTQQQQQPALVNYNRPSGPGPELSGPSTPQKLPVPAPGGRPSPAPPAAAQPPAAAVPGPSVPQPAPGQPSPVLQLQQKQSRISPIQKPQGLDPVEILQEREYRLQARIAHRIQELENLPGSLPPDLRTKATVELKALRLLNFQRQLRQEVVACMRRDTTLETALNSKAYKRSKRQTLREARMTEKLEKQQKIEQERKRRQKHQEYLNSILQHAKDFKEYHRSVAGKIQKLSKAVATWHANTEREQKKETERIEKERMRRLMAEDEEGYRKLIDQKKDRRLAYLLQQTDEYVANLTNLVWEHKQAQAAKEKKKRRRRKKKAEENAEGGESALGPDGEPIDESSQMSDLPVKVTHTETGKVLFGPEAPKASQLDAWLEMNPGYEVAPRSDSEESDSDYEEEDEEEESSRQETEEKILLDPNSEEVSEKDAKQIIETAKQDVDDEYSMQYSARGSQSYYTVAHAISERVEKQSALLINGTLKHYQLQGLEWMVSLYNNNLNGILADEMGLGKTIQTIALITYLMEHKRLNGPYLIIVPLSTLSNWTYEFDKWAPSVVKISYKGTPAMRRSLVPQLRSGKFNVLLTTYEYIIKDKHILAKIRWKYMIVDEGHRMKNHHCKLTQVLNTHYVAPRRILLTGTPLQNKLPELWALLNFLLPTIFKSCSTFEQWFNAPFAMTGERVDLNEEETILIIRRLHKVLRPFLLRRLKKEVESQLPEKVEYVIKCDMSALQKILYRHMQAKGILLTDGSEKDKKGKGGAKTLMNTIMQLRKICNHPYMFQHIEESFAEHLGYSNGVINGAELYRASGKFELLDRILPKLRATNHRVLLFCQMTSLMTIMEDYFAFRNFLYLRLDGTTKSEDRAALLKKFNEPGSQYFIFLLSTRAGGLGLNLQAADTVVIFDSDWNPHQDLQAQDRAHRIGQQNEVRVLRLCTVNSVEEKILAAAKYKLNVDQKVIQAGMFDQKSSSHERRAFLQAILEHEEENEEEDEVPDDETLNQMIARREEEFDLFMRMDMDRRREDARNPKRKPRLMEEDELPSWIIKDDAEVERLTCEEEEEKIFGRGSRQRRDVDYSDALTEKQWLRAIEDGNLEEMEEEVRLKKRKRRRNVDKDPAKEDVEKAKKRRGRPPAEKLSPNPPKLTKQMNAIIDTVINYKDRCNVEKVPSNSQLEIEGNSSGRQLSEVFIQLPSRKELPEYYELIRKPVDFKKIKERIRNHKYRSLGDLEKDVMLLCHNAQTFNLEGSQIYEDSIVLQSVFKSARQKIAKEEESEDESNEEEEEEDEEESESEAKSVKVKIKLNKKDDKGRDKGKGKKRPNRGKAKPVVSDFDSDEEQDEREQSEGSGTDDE
T1 sequence (P51532 whole entry, the tested form may be a part): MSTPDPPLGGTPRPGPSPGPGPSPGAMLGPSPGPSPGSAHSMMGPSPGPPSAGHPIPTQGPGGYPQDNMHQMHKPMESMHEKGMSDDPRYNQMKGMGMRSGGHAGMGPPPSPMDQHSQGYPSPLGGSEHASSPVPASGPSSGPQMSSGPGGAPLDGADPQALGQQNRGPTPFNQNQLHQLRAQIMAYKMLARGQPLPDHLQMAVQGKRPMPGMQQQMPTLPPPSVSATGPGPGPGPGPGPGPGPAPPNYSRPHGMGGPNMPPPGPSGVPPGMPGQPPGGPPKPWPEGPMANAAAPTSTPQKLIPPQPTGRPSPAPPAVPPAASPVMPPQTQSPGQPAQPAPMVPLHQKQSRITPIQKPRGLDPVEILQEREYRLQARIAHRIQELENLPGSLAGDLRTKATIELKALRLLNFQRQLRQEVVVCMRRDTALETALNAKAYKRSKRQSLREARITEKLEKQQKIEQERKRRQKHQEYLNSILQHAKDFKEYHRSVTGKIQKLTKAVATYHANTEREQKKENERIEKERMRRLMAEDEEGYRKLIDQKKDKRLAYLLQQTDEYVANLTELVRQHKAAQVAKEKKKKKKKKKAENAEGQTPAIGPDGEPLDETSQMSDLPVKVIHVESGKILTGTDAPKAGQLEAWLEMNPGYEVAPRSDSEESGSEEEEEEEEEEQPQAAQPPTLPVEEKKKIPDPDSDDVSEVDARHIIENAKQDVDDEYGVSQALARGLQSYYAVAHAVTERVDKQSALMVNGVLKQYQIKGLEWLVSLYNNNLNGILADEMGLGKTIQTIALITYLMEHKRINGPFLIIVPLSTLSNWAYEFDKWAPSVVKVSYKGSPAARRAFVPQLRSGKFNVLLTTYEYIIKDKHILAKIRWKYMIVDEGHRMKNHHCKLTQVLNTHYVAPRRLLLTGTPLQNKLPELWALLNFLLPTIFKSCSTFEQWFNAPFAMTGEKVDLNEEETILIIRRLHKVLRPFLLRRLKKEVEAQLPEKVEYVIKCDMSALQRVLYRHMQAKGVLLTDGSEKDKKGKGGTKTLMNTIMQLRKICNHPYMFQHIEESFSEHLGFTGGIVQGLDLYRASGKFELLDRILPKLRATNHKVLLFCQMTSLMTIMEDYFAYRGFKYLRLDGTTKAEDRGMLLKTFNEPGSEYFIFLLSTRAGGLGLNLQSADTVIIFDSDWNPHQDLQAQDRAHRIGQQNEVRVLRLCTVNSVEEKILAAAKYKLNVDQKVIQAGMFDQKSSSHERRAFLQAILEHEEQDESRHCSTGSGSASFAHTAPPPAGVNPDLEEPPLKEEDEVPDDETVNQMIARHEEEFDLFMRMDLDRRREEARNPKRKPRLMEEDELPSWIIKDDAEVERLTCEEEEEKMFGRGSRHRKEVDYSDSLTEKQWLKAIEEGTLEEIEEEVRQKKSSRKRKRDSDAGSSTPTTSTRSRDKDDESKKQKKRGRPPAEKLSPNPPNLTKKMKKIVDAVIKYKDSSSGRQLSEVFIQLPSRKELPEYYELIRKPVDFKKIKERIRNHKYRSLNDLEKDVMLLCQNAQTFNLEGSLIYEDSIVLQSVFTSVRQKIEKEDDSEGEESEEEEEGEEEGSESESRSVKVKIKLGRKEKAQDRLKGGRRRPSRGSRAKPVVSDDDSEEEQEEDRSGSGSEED

Dmax [1] [%] | DC50 (HiBit-BRM fusion protein) [nM] | DC50 [1] [nM] | Compound | BRM HiBit Degradation Maximum (%) (HiBit-BRM fusion protein)
< 50 | – | – | Cc1ncsc1-c1ccc([C@H](C)NC(=O)[C@@H]2C[C@@H](O)CN2C(=O)[C@@H](c2cc(OCC(=O)N3CCc4[nH]c5nnc(-c6ccccc6O)cc5c4C3)no2)C(C)C)cc1 (racemic) [Compound 194, (2S,4R)-4-hydroxy-1-((R)-2-(3-(2-(3-(2-hydroxyphenyl)-5,7,8,9-tetrahydro-6H-pyrido[3′,4′:4,5]pyrrolo[2,3-c]pyridazin-6-yl)-2-oxoethoxy)isoxazol-5-yl)-3-methylbutanoyl)-N-((S)-1-(4-(4-methylthiazol-5-yl)phenyl)ethyl)pyrrolidine-2-carboxamide] | C (“C” indicates maximum degradation < 50%)
< 50 | > 100 | – | Cc1ncsc1-c1ccc(CNC(=O)[C@@H]2C[C@@H](O)CN2C(=O)[C@@H](NC(=O)CCCCCNC(=O)[C@@H]2CCc3[nH]c4nnc(-c5ccccc5O)cc4c3C2)C(C)(C)C)cc1 (racemic) [Compound 195, (R)-N-(6-(((S)-1-((2S,4R)-4-hydroxy-2-((4-(4-methylthiazol-5-yl)benzyl)carbamoyl)pyrrolidin-1-yl)-3,3-dimethyl-1-oxobutan-2-yl)amino)-6-oxohexyl)-3-(2-hydroxyphenyl)-6,7,8,9-tetrahydro-5H-pyridazino[3,4-b]indole-6-carboxamide] | B (“B” indicates maximum degradation ≥ 50%)
< 50 | > 10 | – | Cc1ncsc1-c1ccc([C@H](C)NC(=O)[C@@H]2C[C@@H](O)CN2C(=O)[C@@H](c2cc(N3CCN(Cc4cc5cc(-c6ccccc6O)nnc5[nH]4)CC3)no2)C(C)C)cc1 (racemic) [Compound 199, (2S,4R)-4-hydroxy-1-((R)-2-(3-(4-((3-(2-hydroxyphenyl)-7H-pyrrolo[2,3-c]pyridazin-6-yl)methyl)piperazin-1-yl)isoxazol-5-yl)-3-methylbutanoyl)-N-((S)-1-(4-(4-methylthiazol-5-yl)phenyl)ethyl)pyrrolidine-2-carboxamide] | A (“A” indicates maximum degradation ≥ 75%)
< 50 | – | – | Cc1ncsc1-c1ccc([C@H](C)NC(=O)[C@@H]2C[C@@H](O)CN2C(=O)C(c2cc(N3CCC(C(=O)N4CCc5[nH]c6nnc(-c7ccccc7O)cc6c5C4)CC3)no2)C(C)C)cc1 (mixture of isomers) [Compound 205, (2S,4R)-4-hydroxy-1-((R)-2-(3-(4-(3-(2-hydroxyphenyl)-6,7,8,9-tetrahydro-5H-pyrido[3′,4′:4,5]pyrrolo[2,3-c]pyridazine-6-carbonyl)piperidin-1-yl)isoxazol-5-yl)-3-methylbutanoyl)-N-((S)-1-(4-(4-methylthiazol-5-yl)phenyl)ethyl)pyrrolidine-2-carboxamide] | C (“C” indicates maximum degradation < 50%)
< 50 | – | – | Cc1ncsc1-c1ccc([C@H](C)NC(=O)[C@@H]2C[C@@H](O)CN2C(=O)[C@@H](c2cc(OCCN3CC(n4c(=O)[nH]c5nnc(-c6ccccc6O)cc54)C3)no2)C(C)C)cc1 (racemic) [Compound 206, (2S,4R)-4-hydroxy-1-[(2R)-2-[3-(2-{3-[3-(2-hydroxyphenyl)-6-oxo-7H-imidazo[4,5-c]pyridazin-5-yl]azetidin-1-yl}ethoxy)-1,2-oxazol-5-yl]-3-methylbutanoyl]-N-[(1S)-1-[4-(4-methyl-1,3-thiazol-5-yl)phenyl]ethyl]pyrrolidine-2-carboxamide] | C (“C” indicates maximum degradation < 50%)
< 50 | > 10 | – | Cc1ncsc1-c1ccc([C@H](C)NC(=O)[C@@H]2C[C@@H](O)CN2C(=O)[C@@H](c2cc(OCCN3CCN(Cc4cc5cc(-c6ccccc6O)nnc5[nH]4)CC3)no2)C(C)C)cc1 (racemic) [Compound 208, (2S,4R)-4-hydroxy-1-((R)-2-(3-(2-(4-((3-(2-hydroxyphenyl)-7H-pyrrolo[2,3-c]pyridazin-6-yl)methyl)piperazin-1-yl)ethoxy)isoxazol-5-yl)-3-methylbutanoyl)-N-((S)-1-(4-(4-methylthiazol-5-yl)phenyl)ethyl)pyrrolidine-2-carboxamide] | A (“A” indicates maximum degradation ≥ 75%)
< 50 | – | – | Cc1ncsc1-c1ccc([C@H](C)NC(=O)[C@@H]2C[C@@H](O)CN2C(=O)[C@@H](c2cc(OCCN3C[C@@H]4[C@H](C3)[C@H]4c3c[nH]c4nnc(-c5ccccc5O)cc34)no2)C(C)C)cc1 (racemic) [Compound 210, (2S,4R)-4-hydroxy-1-((R)-2-(3-(2-((1R,5S,6S)-6-(3-(2-hydroxyphenyl)-7H-pyrrolo[2,3-c]pyridazin-5-yl)-3-azabicyclo[3.1.0]hexan-3-yl)ethoxy)isoxazol-5-yl)-3-methylbutanoyl)-N-((S)-1-(4-(4-methylthiazol-5-yl)phenyl)ethyl)pyrrolidine-2-carboxamide] | C (“C” indicates maximum degradation < 50%)
> 75 | > 10 | > 100 | Cc1ncsc1-c1ccc([C@H](C)NC(=O)[C@@H]2C[C@@H](O)CN2C(=O)[C@@H](c2cc(OCCCN3CC4(CC(c5c[nH]c6nnc(-c7ccccc7O)cc56)C4)C3)no2)C(C)C)cc1 (racemic) [Compound 211, (2S,4R)-4-hydroxy-1-((R)-2-(3-(3-(6-(3-(2-hydroxyphenyl)-7H-pyrrolo[2,3-c]pyridazin-5-yl)-2-azaspiro[3.3]heptan-2-yl)propoxy)isoxazol-5-yl)-3-methylbutanoyl)-N-((S)-1-(4-(4-methylthiazol-5-yl)phenyl)ethyl)pyrrolidine-2-carboxamide] | A (“A” indicates maximum degradation ≥ 75%)
< 50 | > 100 | – | Cc1ncsc1-c1ccc([C@H](C)NC(=O)[C@@H]2C[C@@H](O)CN2C(=O)[C@@H](c2cc(OCCNCc3cc4cc(-c5ccccc5O)nnc4[nH]3)no2)C(C)C)cc1 (racemic) [Compound 212, (2S,4R)-4-hydroxy-1-((R)-2-(3-(2-(((3-(2-hydroxyphenyl)-7H-pyrrolo[2,3-c]pyridazin-6-yl)methyl)amino)ethoxy)isoxazol-5-yl)-3-methylbutanoyl)-N-((S)-1-(4-(4-methylthiazol-5-yl)phenyl)ethyl)pyrrolidine-2-carboxamide] | A (“A” indicates maximum degradation ≥ 75%)
> 75 | > 10 | > 100 | Cc1ncsc1-c1ccc([C@H](C)NC(=O)[C@@H]2C[C@@H](O)CN2C(=O)[C@@H](c2cc(OCCNCC34CC(c5cc6cc(-c7ccccc7O)nnc6[nH]5)(C3)C4)no2)C(C)C)cc1 (racemic) [Compound 213, (2S,4R)-4-hydroxy-1-((R)-2-(3-(2-(((3-(3-(2-hydroxyphenyl)-7H-pyrrolo[2,3-c]pyridazin-6-yl)bicyclo[1.1.1]pentan-1-yl)methyl)amino)ethoxy)isoxazol-5-yl)-3-methylbutanoyl)-N-((S)-1-(4-(4-methylthiazol-5-yl)phenyl)ethyl)pyrrolidine-2-carboxamide] | A (“A” indicates maximum degradation ≥ 75%)
> 75 | > 100 | > 100 | Cc1ncsc1-c1ccc([C@H](C)NC(=O)[C@@H]2C[C@@H](O)CN2C(=O)[C@@H](c2cc(OCCCN3CCN(Cc4cc5cc(-c6ccccc6O)nnc5[nH]4)CC3)no2)C(C)C)cc1 (racemic) [Compound 214, (2S,4R)-4-hydroxy-1-((R)-2-(3-(3-(4-((3-(2-hydroxyphenyl)-7H-pyrrolo[2,3-c]pyridazin-6-yl)methyl)piperazin-1-yl)propoxy)isoxazol-5-yl)-3-methylbutanoyl)-N-((S)-1-(4-(4-methylthiazol-5-yl)phenyl)ethyl)pyrrolidine-2-carboxamide] | A (“A” indicates maximum degradation ≥ 75%)
< 50 | – | – | Cc1ncsc1-c1ccc([C@H](C)NC(=O)[C@@H]2C[C@@H](O)CN2C(=O)[C@H](c2cc(OCCCN3C[C@@H]4[C@H](C3)[C@H]4c3cc4cc(-c5ccccc5O)nnc4[nH]3)no2)C(C)C)cc1 (racemic) [Compound 215, (2S,4R)-4-hydroxy-1-((S)-2-(3-(3-((1R,5S,6S)-6-(3-(2-hydroxyphenyl)-7H-pyrrolo[2,3-c]pyridazin-6-yl)-3-azabicyclo[3.1.0]hexan-3-yl)propoxy)isoxazol-5-yl)-3-methylbutanoyl)-N-((S)-1-(4-(4-methylthiazol-5-yl)phenyl)ethyl)pyrrolidine-2-carboxamide] | C (“C” indicates maximum degradation < 50%)
< 50 | > 100 | – | Cc1ncsc1-c1ccc([C@H](C)NC(=O)[C@@H]2C[C@@H](O)CN2C(=O)[C@@H](c2cc(OCCCN3C[C@@H]4[C@H](C3)[C@H]4c3cc4cc(-c5ccccc5O)nnc4[nH]3)no2)C(C)C)cc1 (racemic) [Compound 216, (2S,4R)-4-hydroxy-1-((R)-2-(3-(3-((1R,5S,6R)-6-(3-(2-hydroxyphenyl)-7H-pyrrolo[2,3-c]pyridazin-6-yl)-3-azabicyclo[3.1.0]hexan-3-yl)propoxy)isoxazol-5-yl)-3-methylbutanoyl)-N-((S)-1-(4-(4-methylthiazol-5-yl)phenyl)ethyl)pyrrolidine-2-carboxamide] | A (“A” indicates maximum degradation ≥ 75%)
